Reference: US20060014702A1, “Antimicrobial agent” (priority 2002, published 2006)
≈ marks a conversion by molar mass, not a printed value.

Columns and labels:
Assay in all cases: Minimum Inhibitory Concentration (MIC) assay
Type in all cases: cell-based
Staphylococcus aureus = conditions: LB broth, 37° C., 6 hours
Experimental: (§1) Inhibition of various bacteria by compounds 4 (n=9) and 6 (n=9) is described in Table 1. The biological data were determined by minimum Inhibitory Concentration (MIC) Assays. Each compound was added to 4 ml LB broth at a starting concentration of 200 μg/ml. Serial dilutions were then made, 1 in 2 at each step, ending with 0.2 μg/ml. 5 μL of a saturated culture was added to each serial dilution, and incubated at 37° C. with shaking for 6 hours. The MIC was then determined as the lowest concentration showing inhibited bacterial growth.

Mycobacterium smegmatis = conditions: Mycolicibacterium smegmatis, LB broth, 37° C., 6 hours
Experimental: as §1

Bacillus subtilis = conditions: LB broth, 37° C., 6 hours
Experimental: as §1

Enterococcus faecalis = conditions: LB broth, 37° C., 6 hours
Experimental: as §1

Structure (SMILES) | MIC (Staphylococcus aureus) | MIC (Mycobacterium smegmatis) | MIC (Bacillus subtilis) | MIC (Enterococcus faecalis)
CCCCCCCCCCS[C@@H]1O[C@@H]([C@H](O)CO)[C@H](O)[C@H]1O [4 (n = 9), Decyl 1-thio-β-D-galactofuranoside] | < 0.2 mg/L | < 0.2 mg/L | 25 mg/L (≈ 74.3 µM) | > 200 mg/L
CCCCCCCCCCC(CCCCCCCCCC)S[C@@H]1O[C@@H]([C@H](O)CO)[C@H](O)[C@H]1O [6 (n = 9), 11-heneicosanyl 1-thio-β-D-galactofuranoside] | < 0.2 mg/L | < 0.2 mg/L | > 200 mg/L | 200 mg/L (≈ 408 µM)
